This is an account of results in publication PMC9499467, “Phenanthroindolizidine Alkaloids Isolated from Tylophora ovata as Potent Inhibitors of Inflammation, Spheroid Growth, and Invasion of Triple-Negative Breast Cancer” (International Journal of Molecular Sciences, 2022).

Data set [1] deals with NFκB. Description: NFκB inhibition assay (2 h), NFκB-dependent nanoluc luciferase reporter. It counts as cell-based, human. Conditions: Homo sapiens; NFκB-MDA-MB-231-nanoluc cells, 2-h treatment, mean ± SD; read-out: NFκB Inhibition 2 h IC50. The method, then: Experiments were performed according to the published protocol. On day 1, 4 × 10^4 NFκB-MDA-MB-231-nanoluc cells were seeded into white 96 well plates (Greiner; #655098). On day 2, the medium was replaced with starvation medium and the cells were pre-incubated for 20 min with either 100 µL of DMSO (Roth; #A994.1) alone at a concentration of maximal 0.1% or with the final concentration of the diluted compounds (Table 3). To activate NFκB signaling, cells were stimulated with 1 µg/mL LPS (Sigma-Aldrich; #L2630) beforehand. NFκB-dependent luciferase activity was measured according to the manufacturer`s protocol for the Nano-Glo Luciferase Assay System (Promega, Mannheim, Germany; #N1110). NFκB-dependent luminescence was determined as relative light units (RLU) using the microplate reader Spark® (Tecan, Männedorf, Switzerland).

In data set [2] the test system is MDA-MB-468-UnaG. Description: 2D cell viability in MDA-MB-468-UnaG under normoxia or CoCl2-simulated hypoxia.
Data set [3] deals with MDA-MB-468-UnaG. Description: Cell cycle studies (PI-DNA flow cytometry) in MDA-MB-468-UnaG. The following applies: normoxia. It counts as cell-based. The method, then: To investigate cell cycle progression in the presence of compound (1s) or paclitaxel (Santa Cruz Biotechnology; #sc-201439), we quantified the DNA content in the cell. On day 1, the cells were seeded in 1 mL into a 24 well plate (Greiner; #662160). On day 2, MDA-MB-468-UnaG were pre-treated either without (normoxia) or with 100 µM CoCl2 (hypoxia) (Sigma-Aldrich; #C8661) for 24 h before compounds were applied. On day 2 for MDA-MB-231 or on day 3 for MDA-MB-468-UnaG, paclitaxel was applied at the concentrations 15 nM, 37 nM, and 100 nM, and compound (1s) was applied at concentrations ranging from 2 nM to 1000 nM. Post-treatment cells were washed in 1× PBS (Thermo Fisher Scientific; #14190); fixed in 70% (v/v) ethanol overnight at 4 °C; washed again in 1× PBS; and, finally, DNA was stained for 15 min at 37 °C in the presence of 10 µg/mL propium iodide (PI; Sigma-Aldrich; #4864) and 100 µg/mL RNase A (Thermo Fisher Scientific; #EN0531) dissolved in 0.1% triton™ X-100 (Sigma-Aldrich; #X100), dissolved in PBS. The fluorescence signal resulting from PI-DNA complex formation was recorded using the flow cytometer CytoFlex (Beckmann Coulter, Krefeld, Germany). The cell cycle phase population was determined based on the DNA content in a set of chromosomes (n) in a cell using the integrated software CytExpert (Beckmann Coulter): sub-G0/G1 (<2n), G0/G1 (2n), S (>2n, <4n), G2/M (4n) or hyperploid cells (>4n) (see Figure S10).

For the next data set, the system named is MDA-MB-231. Description: 2D cell viability (PrestoBlue resazurin) in MDA-MB-231. It counts as cell-based, human. Conditions: Homo sapiens. The method, then:
Cell viability was determined based on resazurin-reduction in viable cells according to the PrestoBlue^TM Assay. On day 1, MDA-MB-231 (1.5 × 10^4 cells per well or 7.5 × 10^3 cells per well) were seeded into black 96 well plates (Greiner; #655090) in a total volume of 100 µL. On day 2, the compounds or DMSO (Roth; #A994.1) alone at maximal 0.1% were applied (final concentrations after serial dilution shown in Table 3). An amount of 20 µM staurosporine (Sigma-Aldrich; #S5921) served as a positive control. On day 3, the PrestoBlue^TM reagent (Invitrogen^TM, Darmstadt, Germany; #A13262) was applied according to the manufacturer`s instructions. Finally, cell viability-dependent fluorescence was recorded in relative fluorescence units (RFU) with excitation/emission (Exλ/Emλ) at 535/590 nm or 560/590 nm, using the microplate reader Spark® (Tecan).

Data set [4] concerns NFκB. Description: NFκB inhibition assay (24 h), NFκB-dependent firefly luciferase reporter. It counts as cell-based. The following applies: Homo sapiens; NFκB-MDA-MB-231-firefly cells, 24-h treatment, 20 ng/mL TNFα, mean ± SD; read-out: NFκB Inhibition 24 h IC50. The method, then: On day 1, 3 × 10^4 NFκB MDA-MB-231-firefly cells were seeded into white 96 well plates (Greiner; #655098). On day 2, the medium was replaced with starvation medium and the cells were pre-incubated for 20 min with either 100 µL of DMSO (Roth; #A994.1) alone at maximal 0.1%, or with the final concentration of the diluted compounds (Table 3). To activate NFκB signaling, cells were stimulated with 20 ng/mL TNFα (Peprotech, Hamburg, Germany; #300-01A). Cell lysis was performed in 20 µL 1× cell lysis buffer according to the manufacturer’s instruction for the Luciferase Assay System (Promega #E1500). NFκB-dependent luminescence was determined as relative light units (RLU) using the microplate reader Spark® (Tecan).

Data set [5] has as its system 3D co-culture spheroids of MDA-MB-231 and primary murine CAFs. Description: 3D growth studies, spheroid size of co-culture spheroids. It counts as cell-based, human MDA-MB-231. The following applies: 100 nM, 72 h. The method, then:
To emulate the TNBC microenvironment, 3D spheroids composed of MDA-MB-231 and CAFs at a ratio of 1:2 in a collagen-based matrix were generated. The culture medium of both cell lines was mixed (DMEM:RPMI 1640 (1:1) + 12.5% FCS + 1% PS) and supplemented with 0.05 mg/mL collagen type I (Thermo Fisher Scientific; #A1048301). On day 1, 3000 cells were seeded into a low-attachment 96 well plate (Greiner; #650970). Spheroids were grown for 72 h before proceeding with compound treatment on day 4, and analysis on day 7 according to the “Spheroid immunostaining”, “3D cell viability”, or “3D growth” studies presented in the results section.
Co-culture spheroids were generated for 72 h before they were exposed to either DMSO (Roth; #A994.1) alone at maximal 0.1%, 100 nM paclitaxel (Santa Cruz Biotechnology; #sc-201439), or 100 nM of compound (1) for another 72 h. At least three spheroids per treatment group were analyzed. For that purpose, brightfield images of the spheroids were acquired at 100× g magnification using the microscope Axio Vert.A1 (Zeiss). The spheroid surface area was quantified in brightfield images using Fiji (open-source software; version 1.52i) and was further defined as spheroid size. In each individual experiment spheroid size was normalized to the smallest (which was set to 0%) and to the largest spheroids (which was set to 100%).

For data set [6] the test system is unchanged. Description: 3D cell viability (ATP content) in TNBC co-culture spheroids. It counts as cell-based, human MDA-MB-231. The following applies: Mus musculus, MDA-MB-231. The method, then:
On day 1, 3000 cells were seeded into a low-attachment 96 well plate (Greiner; #650970). […] Cell viability was determined based on the ATP content in viable cells according to the manufacturer`s instructions (Promega #G9682). Co-culture spheroids were generated for 72 h before they were grown for another 72 h with or without exposure to the compounds. […] Cell viability-dependent luminescence was determined as relative light units (RLU) using the microplate reader Spark® (Tecan).

SMILES strings stand for the structures. Where two headings read alike, the source gives them in different places.

For the molecule `CC(=O)O[C@H]1C(=O)[C@@]2(C)[C@H]([C@H](OC(=O)c3ccccc3)[C@]3(O)C[C@H](OC(=O)[C@H](O)[C@@H](NC(=O)c4ccccc4)c4ccccc4)C(C)=C1C3(C)C)[C@]1(OC(C)=O)CO[C@@H]1C[C@@H]2O` [Paclitaxel, paclitaxel, reference compound], the IC50 with NFκB [1] was over 1000 nM; with MDA-MB-468-UnaG [2] (24 h, read-out: cell viability IC50, hypoxia), over 1000 nM; with MDA-MB-468-UnaG [2] (read-out: cell viability IC50, normoxia) it was 7.7 nM; in the data set on MDA-MB-231 (MDA-MB-231 2D monolayer, 24 h post-treatment, mean ± SD, read-out: Reduction of Cell Viability 24 h IC50), 37.4 ± 8.6 nM; in the data set on MDA-MB-231 (MDA-MB-231, 24 h, one individual experiment (Figure S3a), read-out: IC50 of representative dose-response, 2D cell viability), 36.9 nM; in the data set on NFκB [4], over 1000 nM. Moreover, the half-maximal inhibitory concentration (IC50) in data set [6] (3D co-culture spheroids, 72 h treatment, mean ± SD (n = 3), read-out: Reduction of Cell Viability 72 h IC50) stood at 43 ± 14.3 nM; in data set [6] (co-culture spheroids, 72 h, one individual experiment (Figure S3b), read-out: IC50 of representative dose-response, 3D cell viability) it was 42.8 nM. The “decrease of cytotoxic effects by hypoxia (factor)” value in the data set on MDA-MB-468-UnaG [2] (hypoxia vs normoxia, MDA-MB-468-UnaG) is on record as at least 100. In addition, the “sub-G0/G1 population” value with MDA-MB-468-UnaG [3] (48 h) is given as “increase in the sub-G0/G1 population”. In the data set on MDA-MB-468-UnaG [3] ((1s) 20 nM 72 h, paclitaxel within 24 h), the “cell cycle phase population” value is reported as “significantly induces a G2/M arrest”. In data set [5], the “reduction of spheroid growth compared to untreated spheroids” value is reported as 25%.
